target: T1, LRRK2 Ser935 phosphorylation in SH-SY5Y cells over-expressing recombinant full length LRRK2 (Homo sapiens, UniProt Q5S007); test: Recombinant cellular LRRK2 AlphaScreen assay; assay type: cell-based; conditions: read-out: pIC50 in the recombinant cellular LRRK2 alphaScreen assay (converted)
T1 construct: A BacMam virus expressing full length recombinant LRRK2 was purchased from Invitrogen; host or cells: SH-SY5Y (BacMam transduction)
Source text: Recombinant Cellular LRRK2 AlphaScreen Assay
To determine the activity of compounds against LRRK2 kinase activity in cells, the observed LRRK2 kinase-dependent modulation of LRRK2 Ser 935 phosphorylation (Dzamko et al., 2010, Biochem. J. 430: 405-413) was utilized to develop a quantitative 384 well plate-based immunoassay of LRRK2 Ser935 phosphorylation in the human neuroblastoma cell line SH-SY5Y, engineered to over-express recombinant full length LRRK2 protein.
A BacMam virus expressing full length recombinant LRRK2 was purchased from Invitrogen and amplified by inoculation of SF-9 cells at MOI 0.3 for 4-5 days in Sf-900 III SFM medium supplemented with 3% fetal bovine serum. Infected cell cultures were then centrifuged at 2000 g for 20 minutes, viral supernatant titer determined by anti-gp64 plaque assay and stored at 4° C.
Affinity-purified anti-phospho LRRK2 Ser935 sheep polyclonal antibody (Dzamko et al., 2010, Biochem. J. 430: 405-413) was biotinylated by standard methods (PerkinElmer). Anti-LRRK2 rabbit polyclonal antibody was purchased from Novus Biologicals. AlphaScreen Protein A IgG Kit (including acceptor and donor beads) was purchased from Perkin Elmer.
SH-SY5Y cells were grown in DMEM/F12 medium with 10% dialysed fetal bovine serum and harvested by treatment with 0.5% trypsin-EDTA for 5 minutes at 37° C. followed by centrifugation at 1000 rpm for 4 minutes. The cell pellet was resuspended in Opti-MEM reduced serum media (Invitrogen) at 200,000 cells/ml and mixed with the BacMam LRRK2 virus at M01=50. 50 μl cell solutions were then dispensed to each well of a 384-well plate and incubated at 37° C., 5% CO2 for 24 hours.
Serial dilutions of test compounds were prepared in Opti-MEM reduced serum media (Invitrogen) and 5.6 ul transferred from compound plate to cell assay plate to achieve a top final assay concentration of 10 uM. DMSO was used in certain wells as controls. Cells were incubated at 37° C., 5% CO2 for 60 minutes. The medium was then removed and cells lysed by addition of 20 ul cell lysis buffer (Cell Signaling Technology) and incubation at 4° C. for 20 minutes. 10 ul of antibody/acceptor bead mix [(1/1000 biotinylated-pS935 LRRK2 antibody, 1/1000 total-LRRK2 antibody, 1/100 Acceptor beads in AlphaScreen detection buffer (25 mM Hepes (pH 7.4), 0.5% Triton X-100, 1 mg/ml Dextran 500 and 0.1% BSA)] was then added to each well and plates incubated for 2 hours at ambient temperature in the dark. 10 μl of donor beads solution (1/33.3 donor beads in AlphaScreen detection buffer) was then added to each well. Following incubation for a further 2 hours at ambient temperature in the dark, plates were read on an EnVision™ plate reader at emission 520-620 nm with excitation 680 nm. Dose response curve data was based on sigmoidal dose-response model.

T1 sequence (Q5S007 whole entry): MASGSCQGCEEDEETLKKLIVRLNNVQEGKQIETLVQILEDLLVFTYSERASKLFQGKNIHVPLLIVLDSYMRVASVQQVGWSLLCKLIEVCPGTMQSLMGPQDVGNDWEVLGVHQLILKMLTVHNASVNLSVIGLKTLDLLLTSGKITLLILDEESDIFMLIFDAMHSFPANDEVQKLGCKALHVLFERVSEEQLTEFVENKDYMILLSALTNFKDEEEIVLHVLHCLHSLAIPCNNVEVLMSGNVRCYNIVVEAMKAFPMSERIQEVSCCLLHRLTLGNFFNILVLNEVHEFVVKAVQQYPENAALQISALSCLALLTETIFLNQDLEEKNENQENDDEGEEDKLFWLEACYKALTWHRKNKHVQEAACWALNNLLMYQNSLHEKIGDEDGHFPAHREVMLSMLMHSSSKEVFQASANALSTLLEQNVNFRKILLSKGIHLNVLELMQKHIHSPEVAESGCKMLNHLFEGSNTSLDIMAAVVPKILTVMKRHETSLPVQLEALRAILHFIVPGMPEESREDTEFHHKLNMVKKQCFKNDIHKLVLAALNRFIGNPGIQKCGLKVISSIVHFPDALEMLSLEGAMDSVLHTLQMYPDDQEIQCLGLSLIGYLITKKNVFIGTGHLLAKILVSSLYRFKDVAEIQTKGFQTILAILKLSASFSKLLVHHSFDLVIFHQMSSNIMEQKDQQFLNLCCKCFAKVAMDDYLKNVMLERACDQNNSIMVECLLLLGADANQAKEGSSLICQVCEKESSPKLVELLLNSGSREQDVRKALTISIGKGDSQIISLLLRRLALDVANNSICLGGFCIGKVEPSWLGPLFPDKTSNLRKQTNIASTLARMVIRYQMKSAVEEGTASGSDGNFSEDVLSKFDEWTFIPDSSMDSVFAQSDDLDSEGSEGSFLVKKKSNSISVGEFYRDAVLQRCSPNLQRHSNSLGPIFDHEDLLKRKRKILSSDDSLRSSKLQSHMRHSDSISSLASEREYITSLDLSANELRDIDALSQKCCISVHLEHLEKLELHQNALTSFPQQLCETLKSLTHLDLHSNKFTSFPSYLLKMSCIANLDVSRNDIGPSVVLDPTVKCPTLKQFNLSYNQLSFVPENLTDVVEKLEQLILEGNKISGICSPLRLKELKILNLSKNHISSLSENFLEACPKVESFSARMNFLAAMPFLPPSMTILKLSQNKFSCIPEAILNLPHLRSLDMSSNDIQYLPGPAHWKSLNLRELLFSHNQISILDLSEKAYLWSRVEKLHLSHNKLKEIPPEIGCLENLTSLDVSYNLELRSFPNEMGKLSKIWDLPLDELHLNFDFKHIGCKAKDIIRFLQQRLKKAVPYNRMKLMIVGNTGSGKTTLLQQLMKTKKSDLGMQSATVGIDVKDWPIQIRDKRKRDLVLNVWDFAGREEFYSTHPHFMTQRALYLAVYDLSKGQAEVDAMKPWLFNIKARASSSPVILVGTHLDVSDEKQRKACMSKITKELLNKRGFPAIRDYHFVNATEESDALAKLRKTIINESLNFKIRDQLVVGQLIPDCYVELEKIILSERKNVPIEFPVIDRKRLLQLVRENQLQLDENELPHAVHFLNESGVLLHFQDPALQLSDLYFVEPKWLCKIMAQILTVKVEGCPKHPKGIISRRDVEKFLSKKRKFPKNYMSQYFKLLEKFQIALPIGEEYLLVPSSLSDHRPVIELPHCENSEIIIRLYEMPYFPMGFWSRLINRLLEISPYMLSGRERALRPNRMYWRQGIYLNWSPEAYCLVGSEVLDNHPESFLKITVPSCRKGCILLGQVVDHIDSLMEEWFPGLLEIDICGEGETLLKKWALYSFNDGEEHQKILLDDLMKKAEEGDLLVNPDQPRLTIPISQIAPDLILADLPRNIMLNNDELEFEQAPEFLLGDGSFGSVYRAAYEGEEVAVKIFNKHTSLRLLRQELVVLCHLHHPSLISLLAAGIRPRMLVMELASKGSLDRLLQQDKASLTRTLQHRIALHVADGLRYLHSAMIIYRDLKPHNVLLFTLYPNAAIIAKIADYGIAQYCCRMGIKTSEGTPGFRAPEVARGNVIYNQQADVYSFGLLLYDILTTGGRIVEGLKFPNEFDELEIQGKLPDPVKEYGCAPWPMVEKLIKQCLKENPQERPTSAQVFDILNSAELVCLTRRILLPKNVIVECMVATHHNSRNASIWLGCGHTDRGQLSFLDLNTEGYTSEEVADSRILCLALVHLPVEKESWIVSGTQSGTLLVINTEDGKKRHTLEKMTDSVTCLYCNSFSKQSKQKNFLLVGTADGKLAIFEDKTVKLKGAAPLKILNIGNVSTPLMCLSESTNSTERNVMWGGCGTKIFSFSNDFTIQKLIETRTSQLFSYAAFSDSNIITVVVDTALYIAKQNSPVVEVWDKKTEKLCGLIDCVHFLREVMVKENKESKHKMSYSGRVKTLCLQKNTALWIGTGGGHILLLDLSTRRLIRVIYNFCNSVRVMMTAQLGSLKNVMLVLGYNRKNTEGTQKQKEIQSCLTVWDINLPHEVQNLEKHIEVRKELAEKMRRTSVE

IC50, ≤ 100 nM:
CCOc1nc(Nc2cnn(C3CC(N4CCOCC4)CCC3(F)F)c2Cl)nc2[nH]ccc12 (single isomer, unassigned) [Example E148, trans-N-(5-chloro-1-(2,2-difluoro-5-morpholinocyclohexyl)-1H-pyrazol-4-yl)-4-ethoxy-7H-pyrrolo[2,3-d]pyrimidin-2-amine]
CCOc1nc(Nc2cn(C)nc2C)nc2[nH]ccc12 [Example E1, N-(1,3-dimethyl-1H-pyrazol-4-yl)-4-ethoxy-7H-pyrrolo[2,3-d]pyrimidin-2-amine]
CCOc1nc(Nc2cnn(C)c2Cl)nc2[nH]ccc12 [Example E4, N-(5-chloro-1-methyl-1H-pyrazol-4-yl)-4-ethoxy-7H-pyrrolo-[2,3-d]-pyrimidin-2-amine]
CCOc1nc(Nc2cn(CCOC)nc2C)nc2[nH]ccc12 [Example E8, 4-ethoxy-N-(1-(2-methoxyethyl)-3-methyl-1H-pyrazol-4-yl)-7H-pyrrolo-[2,3-d]-pyrimidin-2-amine]
CCOc1nc(Nc2cnn(CCOC)c2C)nc2[nH]ccc12 [Example E9, 4-ethoxy-N-(1-(2-methoxyethyl)-5-methyl-1H-pyrazol-4-yl)-7H-pyrrolo-[2,3-d]pyrimidin-2-amine]
CCOc1nc(Nc2cnn(CCN3CC4CC4C3)c2C)nc2[nH]ccc12 (stereo not drawn) [Example E10, N-(1-(2-(3-aza-bicyclo-[3.1.0]hexan-3-yl)ethyl)-5-methyl-1H-pyrazol-4-yl)-4-ethoxy-7H-pyrrolo-[2,3-d]pyrimidin-2-amine]
CCOc1nc(Nc2cnn(C3CCOCC3)c2C)nc2[nH]ccc12 [Example E11, 4-ethoxy-N-(5-methyl-1-(tetrahydro-2H-pyran-4-yl)-1H-pyrazol-4-yl)-7H-pyrrolo-[2,3-d]-pyrimidin-2-amine]
CCOc1nc(Nc2cnn(CC(C)(C)O)c2Cl)nc2[nH]ccc12 [Example E15, 1-(5-chloro-4-((4-ethoxy-7H-pyrrolo-[2,3-d]pyrimidin-2-yl)amino)-1H-pyrazol-1-yl)-2-methylpropan-2-ol]
CCOc1nc(Nc2cnn(C3CCN(C)CC3)c2C)nc2[nH]ccc12 [Example E18, 4-ethoxy-N-(5-methyl-1-(1-methylpiperidin-4-yl)-1H-pyrazol-4-yl)-7H-pyrrolo-[2,3-d]-pyrimidin-2-amine]
CCOc1nc(Nc2cnn(C3CCOCC3)c2Cl)nc2[nH]ccc12 [Example E22, N-(5-chloro-1-(tetrahydro-2H-pyran-4-yl)-1H-pyrazol-4-yl)-4-ethoxy-7H-pyrrolo-[2,3-d]-pyrimidin-2-amine]
CCOc1nc(Nc2cnn(CCF)c2C)nc2[nH]ccc12 [Example E26, 4-ethoxy-N-(1-(2-fluoroethyl)-5-methyl-1H-pyrazol-4-yl)-7H-pyrrolo-[2,3-d]-pyrimidin-2-amine]
CCOc1nc(Nc2cn(CCF)nc2C)nc2[nH]ccc12 [Example E27, 4-ethoxy-N-(1-(2-fluoroethyl)-3-methyl-1H-pyrazol-4-yl)-7H-pyrrolo-[2,3-d]-pyrimidin-2-amine]
CCOc1nc(Nc2cnn(CC3COC3)c2Cl)nc2[nH]ccc12 [Example E28, N-(5-chloro-1-(oxetan-3-yl-methyl)-1H-pyrazol-4-yl)-4-ethoxy-7H-pyrrolo-[2,3-d]pyrimidin-2-amine]
CCOc1nc(Nc2cnn(CC3COC3)c2C)nc2[nH]ccc12 [Example E29, 4-ethoxy-N-(5-methyl-1-(oxetan-3-yl-methyl)-1H-pyrazol-4-yl)-7H-pyrrolo-[2,3-d]pyrimidin-2-amine]
CCOc1nc(Nc2cnn(C3COC3)c2C)nc2[nH]ccc12 [Example E34, 4-ethoxy-N-(5-methyl-1-(oxetan-3-yl)-1H-pyrazol-4-yl)-7H-pyrrolo[2,3-d]pyrimidin-2-amine]
CCOc1nc(Nc2cnn(C3COC3)c2Cl)nc2[nH]ccc12 [Example E35, N-(5-chloro-1-(oxetan-3-yl)-1H-pyrazol-4-yl)-4-ethoxy-7H-pyrrolo-[2,3-d]pyrimidin-2-amine]
CCOc1nc(Nc2cnn(C3CCOCC3)c2C)nc2[nH]cc(C#N)c12 [Example E46, 4-ethoxy-2-((5-methyl-1-(tetrahydro-2H-pyran-4-yl)-1H-pyrazol-4-yl)-amino)-7H-pyrrolo-[2,3-d]-pyrimidine-5-carbonitrile]
CCOc1nc(Nc2cnn(CCOC)c2C)nc2[nH]cc(C#N)c12 [Example E47, 4-ethoxy-2-((1-(2-methoxyethyl)-5-methyl-1H-pyrazol-4-yl)-amino)-7H-pyrrolo-[2,3-d]-pyrimidine-5-carbonitrile]
CCOc1nc(Nc2cn(CCOC)nc2C)nc2[nH]cc(C#N)c12 [Example E48, 4-ethoxy-2-((1-(2-methoxyethyl)-3-methyl-1H-pyrazol-4-yl)-amino)-7H-pyrrolo-[2,3-d]-pyrimidine-5-carbonitrile]
CCOc1nc(Nc2cnn([C@H]3CCN(C)C3)c2C)nc2[nH]cc(C#N)c12 [Example E49, (S)-4-ethoxy-2-((5-methyl-1-(1-methyl-pyrrolidin-3-yl)-1H-pyrazol-4-yl)-amino)-7H-pyrrolo-[2,3-d]pyrimidine-5-carbonitrile]
CCOc1nc(Nc2cnn(CCF)c2C)nc2[nH]cc(C#N)c12 [Example E50, 4-ethoxy-2-((1-(2-fluoroethyl)-5-methyl-1H-pyrazol-4-yl)-amino)-7H-pyrrolo-[2,3-d]-pyrimidine-5-carbonitrile]
CCOc1nc(Nc2cnn([C@@H]3CCN(C)C3)c2C)nc2[nH]cc(C#N)c12 [Example E51, (R)-4-ethoxy-2-((5-methyl-1-(1-methyl-pyrrolidin-3-yl)-1H-pyrazol-4-yl)-amino)-7H-pyrrolo-[2,3-d]pyrimidine-5-carbonitrile]
CCOc1nc(Nc2cnn(C3CCN(C4COC4)CC3)c2C)nc2[nH]ccc12 [Example E53, 4-ethoxy-N-(5-methyl-1-(1-(oxetan-3-yl)-piperidin-4-yl)-1H-pyrazol-4-yl)-7H-pyrrolo-[2,3-d]-pyrimidin-2-amine]
CCOc1nc(Nc2cnn([C@H]3CC[C@@H](O)CC3)c2C)nc2[nH]ccc12 [Example E54, cis-4-(4-((4-ethoxy-7H-pyrrolo[2,3-d]pyrimidin-2-yl)amino)-5-methyl-1H-pyrazol-1-yl)-cyclohexanol]
CCOc1nc(Nc2cnn(CC(C)(C)C#N)c2C)nc2[nH]ccc12 [Example E62, 3-(4-((4-ethoxy-7H-pyrrolo-[2,3-d]pyrimidin-2-yl)amino)-5-methyl-1H-pyrazol-1-yl)-2,2-dimethylpropanenitrile]
CCOc1nc(Nc2cnn(CCN3CC[C@@H](F)C3)c2C)nc2[nH]ccc12 [Example E63, (R)-4-ethoxy-N-(1-(2-(3-fluoropyrrolidin-1-yl)-ethyl)-5-methyl-1H-pyrazol-4-yl)-7H-pyrrolo[2,3-d]pyrimidin-2-amine]
CCOc1nc(Nc2cnn(CCN3CC[C@H](F)C3)c2C)nc2[nH]ccc12 [Example E64, (S)-4-ethoxy-N-(1-(2-(3-fluoropyrrolidin-1-yl)ethyl)-5-methyl-1H-pyrazol-4-yl)-7H-pyrrolo[2,3-d]pyrimidin-2-amine]
CCOc1nc(Nc2cnn(C(C)(C)CO)c2C)nc2[nH]ccc12 [Example E65, 2-(4-((4-ethoxy-7H-pyrrolo-[2,3-d]pyrimidin-2-yl)amino)-5-methyl-1H-pyrazol-1-yl)-2-methylpropan-1-ol]
CCOc1nc(Nc2cnn(C3CCN(C4COC4)C3)c2C)nc2[nH]ccc12 (stereo not drawn) [Example E66, 4-Ethoxy-N-(5-methyl-1-(1-(oxetan-3-yl)pyrrolidin-3-yl)-1H-pyrazol-4-yl)-7H-pyrrolo[2,3-d]pyrimidin-2-amine]
CCOc1nc(Nc2cnn(CCN3CCOC[C@H]3C)c2C)nc2[nH]ccc12 [Example E81, (R)-4-ethoxy-N-(5-methyl-1-(2-(3-methylmorpholino)ethyl)-1H-pyrazol-4-yl)-7H-pyrrolo [2,3-d]pyrimidin-2-amine]
